In the CheMixHub drug solubility set:

Test: xn = mol fraction of the nth substance listed, in the solute-free solvent

COC(=O)Nc1nc2ccccc2[nH]1 + CCO + O
solubility (g/100 g solution)
Details	278.15 K	283.15 K	288.15 K	293.15 K	298.15 K	303.15 K	308.15 K	313.15 K	318.15 K
x2 = 0.0417	0.00112	0.00135	0.00165	0.00201	0.00246	0.00289	0.00343	0.00403	0.00475
x2 = 0.08923	0.00223	0.00272	0.0034	0.00411	0.00508	0.00599	0.00715	0.00849	0.01
x2 = 0.1435	0.00325	0.00396	0.00501	0.00619	0.00769	0.0092	0.0111	0.0133	0.0158
x2 = 0.2067	0.00379	0.00471	0.00609	0.00761	0.00949	0.0116	0.0142	0.0172	0.0207
x2 = 0.2813	0.00391	0.00497	0.00649	0.00846	0.0105	0.013	0.0162	0.0199	0.0243
x2 = 0.3701	0.00383	0.0049	0.00658	0.00849	0.011	0.0138	0.0174	0.0219	0.0271
x2 = 0.4762	0.00369	0.0048	0.00651	0.00862	0.0114	0.0146	0.0187	0.0237	0.0298
x2 = 0.6102	0.00358	0.00477	0.00664	0.00884	0.0118	0.0155	0.0202	0.0261	0.0332
x2 = 0.7803	0.0035	0.00477	0.0068	0.0092	0.0125	0.0167	0.0221	0.0289	0.0373

Nc1cc(-c2ccncc2)c[nH]c1=O + CCO + O
solubility (g/100 g solution)
Details	278.15 K	283.15 K	288.15 K	293.15 K	298.15 K	303.15 K	308.15 K	313.15 K	318.15 K	323.15 K
x2 = 0.04165	0.00114	0.00134	0.00159	0.00187	0.00218	0.00251	0.00288	0.00327	0.00372	0.00424
x2 = 0.08908	0.00176	0.00207	0.00246	0.00288	0.00334	0.00384	0.0044	0.00498	0.00565	0.00642
x2 = 0.1436	0.00254	0.00304	0.00354	0.00413	0.00483	0.00549	0.00631	0.00722	0.00814	0.00941
x2 = 0.2068	0.00365	0.00427	0.00505	0.00593	0.00696	0.00785	0.009	0.0101	0.0116	0.0132
x2 = 0.2812	0.00514	0.00605	0.00709	0.0083	0.00956	0.0109	0.0125	0.014	0.0158	0.0179
x2 = 0.3698	0.0062	0.00747	0.00879	0.0103	0.0119	0.0137	0.0156	0.0178	0.0203	0.023
x2 = 0.4772	0.00811	0.00922	0.0108	0.0129	0.0146	0.0167	0.0193	0.0219	0.0247	0.0282
x2 = 0.6101	0.00938	0.0112	0.013	0.0153	0.0176	0.0202	0.0231	0.0259	0.029	0.033
x2 = 0.7788	0.0106	0.0125	0.0148	0.0174	0.0202	0.0229	0.026	0.0294	0.0329	0.0368

Nc1ncc(Br)nc1Br + CCO + O
solubility (g/100 g solution)
Details	278.15 K	283.15 K	288.15 K	293.15 K	298.15 K	303.15 K	308.15 K	313.15 K	318.15 K	323.15 K
x2 = 0.04165	0.0211	0.0254	0.0296	0.0345	0.0394	0.044	0.0494	0.0552	0.0608	0.0668
x2 = 0.08908	0.0644	0.0768	0.0889	0.102	0.116	0.128	0.142	0.158	0.172	0.188
x2 = 0.1436	0.124	0.148	0.171	0.197	0.222	0.245	0.271	0.299	0.326	0.354
x2 = 0.2068	0.179	0.214	0.249	0.286	0.324	0.358	0.395	0.438	0.479	0.521
x2 = 0.2812	0.211	0.256	0.304	0.349	0.397	0.444	0.493	0.546	0.604	0.661
x2 = 0.3698	0.245	0.296	0.35	0.412	0.474	0.527	0.589	0.656	0.726	0.798
x2 = 0.4772	0.274	0.338	0.41	0.481	0.546	0.618	0.693	0.776	0.863	0.957
x2 = 0.6101	0.321	0.396	0.476	0.557	0.644	0.729	0.82	0.919	1.03	1.15
x2 = 0.7788	0.4	0.489	0.59	0.683	0.792	0.891	1	1.13	1.26	1.4

O=C1C=CC(=O)N1c1ccccc1Br + CCO + O
solubility (g/100 g solution)
Details	278.15 K	283.15 K	288.15 K	293.15 K	298.15 K	303.15 K	308.15 K	313.15 K	318.15 K	323.15 K
x2 = 0.04165	0.529	0.674	0.862	1.08	1.34	1.67	2.03	2.48	2.98	3.59
x2 = 0.08908	0.965	1.24	1.54	1.93	2.39	2.94	3.58	4.39	5.22	6.22
x2 = 0.1436	1.66	2.09	2.65	3.22	3.94	4.8	5.87	6.98	8.31	9.86
x2 = 0.2068	2.5	3.13	3.83	4.75	5.68	6.85	8.18	9.81	11.5	13.3
x2 = 0.2812	3.54	4.34	5.21	6.34	7.51	9.04	10.5	12.3	14.3	16.5
x2 = 0.3698	4.32	5.25	6.3	7.63	8.97	10.7	12.4	14.4	16.6	18.8
x2 = 0.4772	4.85	5.92	7.08	8.5	10	11.8	13.7	15.7	18.1	20.8
x2 = 0.6101	5.33	6.52	7.78	9.33	11	12.9	15.1	17.4	19.9	22.6
x2 = 0.7788	5.65	6.85	8.21	9.83	11.7	13.6	15.8	18.6	20.8	23.7

O=c1cc(CBr)c2ccccc2[nH]1 + CCO + O
solubility (g/100 g solution)
Details	278.15 K	283.15 K	288.15 K	293.15 K	298.15 K	303.15 K	308.15 K	313.15 K	318.15 K
x2 = 0.04165	0.0134	0.0174	0.023	0.0295	0.038	0.0476	0.0598	0.0753	0.0924
x2 = 0.08908	0.0233	0.0297	0.037	0.0455	0.0569	0.0694	0.0854	0.104	0.123
x2 = 0.1436	0.0341	0.042	0.0509	0.0622	0.075	0.0906	0.106	0.127	0.151
x2 = 0.2068	0.0469	0.0559	0.0666	0.0787	0.0931	0.11	0.128	0.148	0.172
x2 = 0.2812	0.0609	0.0715	0.0837	0.0964	0.112	0.13	0.148	0.168	0.193
x2 = 0.3698	0.0732	0.0845	0.0974	0.111	0.128	0.145	0.163	0.184	0.209
x2 = 0.4772	0.0832	0.0948	0.109	0.123	0.138	0.157	0.176	0.196	0.221
x2 = 0.6101	0.0917	0.103	0.116	0.131	0.147	0.164	0.182	0.202	0.224
x2 = 0.7788	0.0963	0.108	0.12	0.134	0.15	0.165	0.182	0.201	0.219

c1ccc2c(c1)CCc1ccccc1N2 + CCO + O
solubility (g/100 g solution)
Details	283.15 K	288.15 K	293.15 K	298.15 K	303.15 K	308.15 K	313.15 K	318.15 K	323.15 K	328.15 K
x2 = 0.04179	0.0221	0.0315	0.0433	0.0609	0.0803	0.109	0.143	0.188	0.245	0.315
x2 = 0.08913	0.114	0.158	0.211	0.288	0.371	0.489	0.626	0.801	1.02	1.28
x2 = 0.1443	0.214	0.292	0.388	0.52	0.666	0.866	1.1	1.39	1.75	2.17
x2 = 0.207	0.24	0.326	0.432	0.576	0.738	0.954	1.21	1.53	1.91	2.38
x2 = 0.2814	0.229	0.311	0.414	0.548	0.706	0.909	1.15	1.46	1.82	2.27
x2 = 0.3697	0.231	0.313	0.417	0.55	0.71	0.909	1.15	1.46	1.82	2.26
x2 = 0.4785	0.269	0.363	0.465	0.612	0.779	1	1.28	1.62	2.02	2.49
x2 = 0.6105	0.316	0.423	0.561	0.728	0.94	1.19	1.5	1.89	2.33	2.88
x2 = 0.7769	0.374	0.498	0.659	0.848	1.09	1.37	1.73	2.16	2.66	3.28

Nc1cccc2c1CN(C1CCC(=O)NC1=O)C2=O (configuration not stated) + CCOC(C)=O + CC(C)O
solubility (g/100 g solution)
Details	273.15 K	278.15 K	283.15 K	288.15 K	293.15 K	298.15 K	303.15 K	308.15 K	313.15 K	318.15 K
x2 = 0.1457	0.111	0.13	0.152	0.176	0.202	0.232	0.267	0.306	0.354	0.41
x2 = 0.3126	0.141	0.157	0.176	0.198	0.226	0.259	0.294	0.337	0.385	0.438
x2 = 0.5057	0.179	0.201	0.223	0.247	0.274	0.301	0.334	0.37	0.41	0.454
x2 = 0.7318	0.135	0.154	0.176	0.198	0.222	0.248	0.278	0.31	0.343	0.382
